Measured values published in patent US20160243223A1, “METHODS FOR TREATING CANCERS COMPRISING K-RAS MUTATIONS” (OncoMed Pharmaceuticals, Inc., priority 2009, published 2016).

B1: 21M18 H7L2: humanized form of the murine 21M18 antibody; anti-human DLL4 antibody (antibody, V domains shown)
VH: QVQLVQSGAEVKKPGASVKISCKASGYSFTAYYIHWVKQAPGQGLEWIGYISSYNGATNYNQKFKGRVTFTTDTSTSTAYMELRSLRSDDTAVYYCARDYDYDVGMDYWGQGTLVTVSS
VL: DIVMTQSPDSLAVSLGERATISCRASESVDNYGISFMKWFQQKPGQPPKLLIYAASNQGSGVPDRFSGSGSGTDFTLTISSLQAEDVAVYYCQQSKEVPWTFGGGTKVEIK

Experiments:
[1] = tested on: C9 colon tumor; assay: C9 colon tumor recurrence xenograft model; format: in vivo, NOD/SCID mice; conditions: treatment from 2 days after injection; antibody 10 mg/kg twice a week, irinotecan […] once a week, intraperitoneally; FIG. 4
Procedure: Starting 2 days after injection, mice were treated with irinotecan alone (Δ) or anti-human DLL4 antibody (21M18 […]) plus irinotecan (▾). Treatment in both groups was discontinued on the indicated day and tumor growth was monitored for an additional period of time. […] Both antibodies and chemotherapeutic agents were administered intraperitoneally. Tumor growth was measured with electronic calipers at the indicated time points.

[2] = tested on: PN8 pancreatic tumor; assay: PN8 pancreatic tumor recurrence xenograft model after gemcitabine; format: in vivo, NOD/SCID mice; conditions: after gemcitabine 100 mg/kg once a week for 4 weeks; antibodies 10 mg/kg once a week from day 53; vs control antibody; FIG. 5
Procedure: The PN8 pancreatic tumor was determined to have a K-ras mutation, a glycine to aspartic acid mutation at codon 12, that is a known activating mutation. Anti-DLL4 antibodies were tested for efficacy in this xenograft tumor model. Dissociated PN8 pancreatic tumor cells (10,000 cells) were injected subcutaneously into the flanks of 6-8 week old NOD/SCID mice. Tumors were allowed to grow for 28 days until they reached an average volume of 173 mm^3. […] On day 53, the gemcitabine treatments were stopped and antibody treatments initiated. Mice were treated with control antibody ([…]), anti-mouse DLL4 antibody (21R30) (▾), anti-human DLL4 antibody (21M18 H7L2) (▴), or a combination of anti-mouse DLL4 antibody and anti-human DLL4 antibody (21R30+21M18 H7L2) (□). […] Both antibodies and chemotherapeutic agents were administered intraperitoneally. Tumor growth was measured with electronic calipers at the indicated time points.

Row | Molecule | tumor growth after cessation of treatment [1] | tumor recurrence after chemotherapy [2]
1 | CCc1c2c(nc3ccc(OC(=O)N4CCC(N5CCCCC5)CC4)cc13)-c1cc3c(c(=O)n1C2)COC(=O)[C@]3(O)CC [Irinotecan, irinotecan] | tumor growth progressed | –
2 | B1 | – | more substantial effect in inhibiting and/or delaying tumor re-growth
